The source made the active and inactive calls. The calls are words filed in the database; no cut-off is given here.
Assays:
Rattus norvegicus [1] = assay: Decrease in cumulative food intake in high-fat diet fed CD rat at 5 mg/kg, ip after 1 to 6 hrs; format: functional, organism-based; design: dose 5 mg/kg
Melanocortin receptor 4 [2] = target: T1, Melanocortin receptor 4 (Homo sapiens, UniProt P32245); assay: Displacement of [125I]NDP-MSH from human MC4 receptor expressed in HEK293 cells; format: cell-based
T1 sequence (P32245 whole entry): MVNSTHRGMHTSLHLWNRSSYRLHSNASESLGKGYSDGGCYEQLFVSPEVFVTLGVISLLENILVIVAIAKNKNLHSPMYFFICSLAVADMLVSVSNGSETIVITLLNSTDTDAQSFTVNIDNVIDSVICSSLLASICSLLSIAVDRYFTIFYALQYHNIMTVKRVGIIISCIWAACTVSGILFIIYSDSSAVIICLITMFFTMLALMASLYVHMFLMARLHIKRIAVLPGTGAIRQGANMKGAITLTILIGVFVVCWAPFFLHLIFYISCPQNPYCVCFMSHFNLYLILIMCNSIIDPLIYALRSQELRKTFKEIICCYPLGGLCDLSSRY

Melanocortin receptor 4 [3] = target: T1, Melanocortin receptor 4; assay: Intrinsic activity at human MC4 receptor expressed in CHO cells assessed as cAMP accumulation relative to alpha-MSH; format: functional, cell-based
Melanocortin receptor 4 [4] = target: T1, Melanocortin receptor 4; assay: Antagonist activity at human MC4 receptor expressed in CHO cells assessed as inhibition of alpha-MSH-stimulated of cAMP production by ELISA; format: functional, cell-based
Melanocortin receptor 3 = Melanocortin receptor 3 (Homo sapiens, UniProt P41968); assay: Binding affinity at human MC3 receptor
Melanocortin receptor 3, sequence (P41968 whole entry): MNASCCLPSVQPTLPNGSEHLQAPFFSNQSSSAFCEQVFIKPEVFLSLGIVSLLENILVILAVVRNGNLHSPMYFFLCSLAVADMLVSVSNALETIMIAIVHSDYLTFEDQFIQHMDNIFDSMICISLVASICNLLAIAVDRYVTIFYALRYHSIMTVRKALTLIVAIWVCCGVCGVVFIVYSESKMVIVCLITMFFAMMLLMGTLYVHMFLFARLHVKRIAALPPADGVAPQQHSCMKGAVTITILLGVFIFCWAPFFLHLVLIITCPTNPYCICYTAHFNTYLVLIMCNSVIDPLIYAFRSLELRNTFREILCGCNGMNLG

[5] = target: T2, Melanocyte-stimulating hormone receptor (Homo sapiens, UniProt Q01726); assay: Binding affinity at human MC1 receptor at 10 uM
Target sequence in this assay (Q01726 whole entry, looked up): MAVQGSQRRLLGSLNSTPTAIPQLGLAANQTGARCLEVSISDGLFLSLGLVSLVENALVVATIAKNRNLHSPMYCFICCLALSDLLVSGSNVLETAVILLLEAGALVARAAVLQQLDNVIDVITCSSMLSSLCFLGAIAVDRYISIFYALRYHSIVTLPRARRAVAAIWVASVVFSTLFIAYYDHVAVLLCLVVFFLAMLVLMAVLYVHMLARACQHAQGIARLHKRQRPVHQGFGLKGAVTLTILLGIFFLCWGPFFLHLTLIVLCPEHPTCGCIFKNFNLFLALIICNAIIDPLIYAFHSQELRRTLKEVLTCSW

Melanocortin receptor 5 = Melanocortin receptor 5 (Homo sapiens, UniProt P33032); assay: Binding affinity at human MC5 receptor
Melanocortin receptor 5, sequence (P33032 whole entry): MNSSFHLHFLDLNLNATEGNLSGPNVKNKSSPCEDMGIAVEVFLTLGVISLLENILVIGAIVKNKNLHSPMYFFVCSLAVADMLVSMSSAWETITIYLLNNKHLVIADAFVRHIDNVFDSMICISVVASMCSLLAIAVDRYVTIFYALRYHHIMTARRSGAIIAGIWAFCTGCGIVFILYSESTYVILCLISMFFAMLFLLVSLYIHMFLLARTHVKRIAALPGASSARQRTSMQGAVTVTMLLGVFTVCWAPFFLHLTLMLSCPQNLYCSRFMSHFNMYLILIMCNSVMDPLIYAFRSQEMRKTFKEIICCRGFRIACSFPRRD

Melanocortin receptor 4 [6] = target: T1, Melanocortin receptor 4; assay: Agonist activity at human MC4 receptor expressed in CHO cells assessed as cAMP accumulation by ELISA; format: functional, cell-based
Rattus norvegicus [7] = assay: Decrease in cumulative food intake in high-fat diet fed CD rat at 30 mg/kg, ip after 1 to 6 hrs; format: functional, organism-based; design: dose 30 mg/kg
[8] = Apparent permeability across apical to basolateral side of Caco-2 cells; format: ADME, cell-based; conditions: human
[9] = Plasma clearance in rat at 2.5 mg/kg, iv; format: ADME, organism-based; design: dose 2.5 mg/kg, route intravenous
[10] = AUC in rat at 10 mg/kg, po; format: ADME, organism-based; design: dose 10 mg/kg, route oral; conditions: plasma
[11] = Distribution coefficient, log D by shake flake method; format: physicochemical; conditions: octanol/water
Rattus norvegicus [12] = organism: Rattus norvegicus; assay: Decrease in cumulative food intake in high-fat diet fed CD rat after 24 hrs; format: functional, organism-based
[13] = Half life in rat at 2.5 mg/kg, iv; format: ADME, organism-based; design: dose 2.5 mg/kg, route intravenous; conditions: in vivo
[14] = Cmax in rat at 10 mg/kg, po after 3 hrs; format: ADME, organism-based; design: dose 10 mg/kg, route oral; conditions: in vivo
[15] = Ratio of drug level in brain to plasma in rat at 2.5 mg/kg, iv; format: ADME, organism-based; design: dose 2.5 mg/kg, route intravenous; conditions: read-out: BPR
[16] = Concentration in rat brain at 2.5 mg/kg, iv after 1 hr; format: ADME, organism-based; design: dose 2.5 mg/kg, route intravenous; conditions: read-out: Drug uptake
[17] = Volume of distribution in rat at 2.5 mg/kg, iv; format: ADME, organism-based; design: dose 2.5 mg/kg, route intravenous; conditions: in vivo
Caco-2 = assay: Ratio of permeability from […] side of Caco-2 cells; format: ADME, cell-based; conditions: human
[18] = Concentration in rat brain at 2.5 mg/kg, iv after 4 hrs; format: ADME, organism-based; design: dose 2.5 mg/kg, route intravenous; conditions: read-out: Drug uptake
[19] = Oral bioavailability in rat at 10 mg/kg, po; format: ADME, organism-based; conditions: in vivo
[20] = target: T2, Melanocyte-stimulating hormone receptor; assay: Binding affinity at human MC1 receptor
Target sequence in this assay (Q01726 whole entry): as the sequence (Q01726 whole entry, looked up) above

**Q.** For `CCNC(C)Cc1cccc(C(F)(F)F)c1` (centres undefined), which Activity (Rattus norvegicus [1]) is on record?
**A.** Active

**Q.** Which Ki (Melanocortin receptor 4 [2]) does the source give for `Cc1ccc(N2CCN(C(=O)[C@H]3CN(C4CCOCC4)C[C@@H]3c3ccc(Cl)cc3)CC2)c([C@@H](N)C(C)C)c1` here?
**A.** 0.0086 µM

**Q.** What about the Intrinsic activity (Melanocortin receptor 4 [3]) of the same molecule?
**A.** 18%

**Q.** What about the IC50 (Melanocortin receptor 4 [4]) of the same molecule?
**A.** 0.065 µM

**Q.** And the Ki (Melanocortin receptor 3)?
**A.** 1.4 µM

**Q.** And the inhibition [5]?
**A.** 33%

**Q.** And the Ki (Melanocortin receptor 5)?
**A.** 0.38 µM

**Q.** Which results are given for `Cc1ccc(N2CCN(C(=O)[C@@H]3CN(C4CCN(CC(C)C)CC4)C[C@H]3c3ccc(Cl)cc3)CC2)c([C@@H](N)C(C)C)c1`?
**A.** Ki (Melanocortin receptor 4 [2]): 0.0054 µM; Intrinsic activity (Melanocortin receptor 4 [3]): 1%; IC50 (Melanocortin receptor 4 [4]): 1.8 µM

**Q.** Which Ki (Melanocortin receptor 4 [2]) does the source give for `CC(=O)N1C[C@@H](C(=O)N2CCN(c3ccc(C(F)(F)F)cc3[C@@H](N)CC(C)C)CC2)[C@H](c2ccc(Cl)cc2)C1` here?
**A.** 0.066 µM

**Q.** And the Intrinsic activity (Melanocortin receptor 4 [3])?
**A.** 72%

**Q.** And the EC50 (Melanocortin receptor 4 [6])?
**A.** 1.9 µM

**Q.** Which Ki (Melanocortin receptor 4 [2]) does the source give for `COc1ccc([C@@H]2CN(C(C)C)C[C@H]2C(=O)N2CCN(c3ccc(C(F)(F)F)cc3[C@@H](N)CC(C)C)CC2)cc1` here?
**A.** 0.067 µM

**Q.** What about the Intrinsic activity (Melanocortin receptor 4 [3]) of the same molecule?
**A.** 67%

**Q.** And the EC50 (Melanocortin receptor 4 [6])?
**A.** 0.45 µM

**Q.** Which Ki (Melanocortin receptor 4 [2]) does the source give for `CC(C)[C@H](N)c1cccc(F)c1N1CCN(C(=O)[C@@H]2CN(C3CCCC3)C[C@H]2c2ccc(Cl)cc2)CC1` here?
**A.** 0.026 µM

**Q.** And the Intrinsic activity (Melanocortin receptor 4 [3])?
**A.** 80%

**Q.** What about the EC50 (Melanocortin receptor 4 [6]) of the same molecule?
**A.** 0.4 µM

**Q.** With `Cc1ccc(N2CCN(C(=O)[C@@H]3CN(C4CCOCC4)C[C@H]3c3ccc(Cl)cc3)CC2)c([C@@H](N)C(C)C)c1` as the molecule, how does the Activity (Rattus norvegicus [7]) read?
**A.** Active

**Q.** And the Papp A→B [8]?
**A.** 0.8 ×10⁻⁶ cm/s

**Q.** And the Ki (Melanocortin receptor 4 [2])?
**A.** 0.011 µM

**Q.** What about the Intrinsic activity (Melanocortin receptor 4 [3]) of the same molecule?
**A.** 105%

**Q.** And the clearance [9]?
**A.** 118 mL/min/kg

**Q.** What about the AUC [10] of the same molecule?
**A.** 154 ng·h/mL

**Q.** What about the logD [11] of the same molecule?
**A.** 1.8

**Q.** What about the Activity (Rattus norvegicus [12]) of the same molecule?
**A.** Dose-dependent effect

**Q.** What about the half-life [13] of the same molecule?
**A.** 27 h

**Q.** What about the EC50 (Melanocortin receptor 4 [6]) of the same molecule?
**A.** 0.024 µM

**Q.** What about the Cmax [14] of the same molecule?
**A.** 16 ng/mL

**Q.** And the Kp [15]?
**A.** 0.7

**Q.** What about the concentration at 1 h [16] of the same molecule?
**A.** 5 ng/g

**Q.** What about the Vd [17] of the same molecule?
**A.** 270 L/kg

**Q.** What about the Ratio (Caco-2) of the same molecule?
**A.** 25

**Q.** And the concentration at 4 h [18]?
**A.** 32 ng/g

**Q.** And the Ki (Melanocortin receptor 3)?
**A.** 1.6 µM

**Q.** What about the bioavailability [19] of the same molecule?
**A.** 22%

**Q.** And the Ki (Melanocortin receptor 5)?
**A.** 0.24 µM

**Q.** And the Ki [20]?
**A.** 3.35 µM
